From patent publication US20100298141A1, “SUBSTITUTED PYRIDINE N-OXIDE HERBICIDES” (E. I. DU PONT DE NEMOURS AND COMPANY, priority 2007, published 2010)

Tests used:
catchweed bedstraw = experiment: Test C pre-/postemergence test; format: in vivo, Galium aparine; conditions: Preemergence
Procedure, shortened: (§1)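 Seeds were planted and treated preemergence with test chemical in a non-phytotoxic solvent mixture containing surfactant. Postemergence applications of the same formulation went onto plants 2 to 18 cm tall (1- to 4-leaf stage). A dash marks no test result.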

woolly cupgrass = experiment: Test C pre-/postemergence test; format: in vivo, Eriochloa villosa; conditions: Preemergence
Procedure, shortened: as §1

cocklebur = experiment: Test C pre-/postemergence test; format: in vivo, Xanthium strumarium
Procedure, shortened: as §1

giant foxtail = experiment: Test C pre-/postemergence test; format: in vivo, Setaria faberii; conditions: Preemergence
Procedure, shortened: as §1

velvetleaf [1] = experiment: Test C pre-/postemergence test; format: in vivo, Abutilon theophrasti; conditions: Preemergence
Procedure, shortened: as §1

blackgrass = experiment: Test C pre-/postemergence test; format: in vivo, Alopecurus myosuroides
Procedure, shortened: as §1

corn = experiment: Test C pre-/postemergence test; format: in vivo, Zea mays
Procedure, shortened: as §1

velvetleaf [2] = experiment: Test A pre-/postemergence greenhouse test; format: in vivo, Abutilon theophrasti; conditions: for Velvetleaf plant response rating: 0 to 100 scale
Procedure, shortened: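 Sowing in loam/sand; same-day pre (directed soil spray) and post (foliar, 1–2 leaf, 2–10 cm) treatment with surfactant-containing non-phytotoxic solvent formulation; ~10 days in greenhouse; eye-scored injury against untreated plants.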

soybean = experiment: Test C pre-/postemergence test; format: in vivo, Glycine max; conditions: Preemergence
Procedure, shortened: as §1

green foxtail = experiment: Test C pre-/postemergence test; format: in vivo, Setaria viridis; conditions: Preemergence
Procedure, shortened: as §1

duck salad = experiment: Test C flooded paddy test; format: in vivo, Heteranthera limosa; conditions: Flood
Procedure, shortened: (§2)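 In-water treatment: compound dosed into 3 cm flood over soil, water level unchanged throughout. Controls run alongside; visual assessment at day 13–15.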

downy brome = experiment: Test C pre-/postemergence test; format: in vivo, Bromus tectorum
Procedure, shortened: as §1

barnyardgrass = experiment: Test C flooded paddy test; format: in vivo, Echinochloa crus-galli; conditions: Flood
Procedure, shortened: as §2

Italian ryegrass = experiment: Test C pre-/postemergence test; format: in vivo, Lolium multiflorum; conditions: Preemergence
Procedure, shortened: as §1

wild oat = experiment: Test C pre-/postemergence test; format: in vivo, Avena fatua; conditions: Preemergence
Procedure, shortened: as §1

morningglory = experiment: Test C pre-/postemergence test; format: in vivo, Ipomoea coccinea; conditions: Preemergence
Procedure, shortened: as §1

johnsongrass = experiment: Test C pre-/postemergence test; format: in vivo, Sorghum halepense; conditions: Preemergence
Procedure, shortened: as §1

[3] = 31 g ai/ha, scale 0 to 100 (0 no effect, 100 complete control)
[4] = 62 g ai/ha, Preemergence, scale 0 to 100
[5] = Preemergence, 31 g ai/ha, scale 0 to 100 (0 no effect, 100 complete control)
[6] = preemergence, 125 g ai/ha, scale 0 (no effect) to 100 (complete control)
[7] = 62 g ai/ha, scale 0 to 100, 0 no effect, 100 complete control, 13 to 15 days
[8] = 125 g ai/ha, scale 0 to 100, 0 no effect, 100 complete control, 13 to 15 days
[9] = 250 g ai/ha, scale 0 to 100 (0 no effect, 100 complete control)

SMILES: Cn1nc(C(F)(F)F)c(CS(=O)(=O)c2ccc(Cl)c[n+]2[O-])c1Cl [Compound 18]
- Galium plant response rating (catchweed bedstraw; 62 g ai/ha, scale 0 to 100): 0
- Plant response rating, Galium (catchweed bedstraw; [3]): 0
- Plant response rating (0 to 100), Galium (catchweed bedstraw; 250 g ai/ha): 90
- Cupgrass, Woolly plant response rating (woolly cupgrass; 62 g ai/ha, scale 0 to 100): 80
- Plant response rating, Cupgrass, Woolly (woolly cupgrass; [3]): 10
- Plant response rating (0 to 100), Cupgrass, Woolly (woolly cupgrass; 250 g ai/ha): 100
- Cocklebur plant response rating (cocklebur; [4]): 0
- Plant response rating, Cocklebur (cocklebur; [5]): 0
- Plant response rating (0 to 100), Cocklebur (cocklebur; Preemergence, 250 g ai/ha): 0
- Cocklebur plant response rating (cocklebur; [6]): 0
- Foxtail, Giant plant response rating (giant foxtail; 62 g ai/ha, scale 0 to 100): 85
- Plant response rating, Foxtail, Giant (giant foxtail; [3]): 65
- Plant response rating (0 to 100), Foxtail, Giant (giant foxtail; 250 g ai/ha): 100
- Velvetleaf plant response rating (velvetleaf [1]; 62 g ai/ha, scale 0 to 100): 0
- Plant response rating, Velvetleaf (velvetleaf [1]; [3]): 0
- Blackgrass plant response rating (blackgrass; [4]): 0
- Plant response rating, Blackgrass (blackgrass; [5]): 0
- Plant response rating (0 to 100), Blackgrass (blackgrass; Preemergence, 250 g ai/ha): 98
- Blackgrass plant response rating (blackgrass; [6]): 98
- Corn plant response rating (corn; [4]): 0
- Plant response rating, Corn (corn; [5]): 0
- Plant response rating (0 to 100), Corn (corn; Preemergence, 250 g ai/ha): 15
- Corn plant response rating (corn; [6]): 0
- Velvetleaf plant response rating (velvetleaf [2]; Postemergence, 125 g ai/ha, 0 is no effect, 100 is complete control): 0
- Velvetleaf plant response rating (velvetleaf [2]; Postemergence, 500 g ai/ha, 0 is no effect, 100 is complete control): 40
- Velvetleaf plant response rating (velvetleaf [2]; Preemergence, 125 g ai/ha, 0 no effect, 100 complete control): 0
- Plant response rating, Velvetleaf (velvetleaf [2]; Preemergence, 500 g ai/ha, 0 to 100 scale where 0 is no effect and 100 is complete control): 40
- Soybean plant response rating (soybean; 62 g ai/ha, scale 0 to 100): 0
- Plant response rating, Soybean (soybean; [3]): 0
- Plant response rating, Foxtail, Green (green foxtail; [3]): 20
- Plant response rating (0 to 100), Foxtail, Green (green foxtail; 250 g ai/ha): 100
- Plant response rating, Ducksalad (duck salad; [3]): 0
- Plant response rating, Ducksalad (duck salad; [7]): 0
- Plant response rating, Ducksalad (duck salad; [8]): 80
- Plant response rating, Ducksalad (duck salad; [9]): 80
- Bromegrass, Downy plant response rating (downy brome; [4]): 0
- Plant response rating, Bromegrass, Downy (downy brome; [5]): 0
- Plant response rating (0 to 100), Bromegrass, Downy (downy brome; Preemergence, 250 g ai/ha): 0
- Bromegrass, Downy plant response rating (downy brome; [6]): 0
- Plant response rating, Barnyardgrass (barnyardgrass; [3]): 0
- Plant response rating, Barnyardgrass (barnyardgrass; [7]): 30
- Plant response rating, Barnyardgrass (barnyardgrass; [8]): 75
- Plant response rating, Barnyardgrass (barnyardgrass; [9]): 85
- Ryegrass, Italian plant response rating (Italian ryegrass; 62 g ai/ha, scale 0 to 100): 0
- Plant response rating, Ryegrass, Italian (Italian ryegrass; [3]): 0
- Oat, Wild plant response rating (wild oat; 62 g ai/ha, scale 0 to 100): 0
- Plant response rating, Oat, Wild (wild oat; [3]): 0
- Morningglory plant response rating (morningglory; 62 g ai/ha, scale 0 to 100): 0
- Plant response rating, Morningglory (morningglory; [3]): 0
- Johnsongrass plant response rating (johnsongrass; 62 g ai/ha, scale 0 to 100): 100
- Plant response rating, Johnsongrass (johnsongrass; [3]): 5
- Plant response rating (0 to 100), Johnsongrass (johnsongrass; 250 g ai/ha): 100
